Measured values from US20220313626A1, “SMALL MOLECULE INHIBITORS FOR TREATING CANCER IN A SUBJECT HAVING TUMORS WITH HIGH INTERSTITIAL PRESSURE” (GUANGZHOU MAXINOVEL PHARMACEUTICALS CO., LTD., priority 2019, published 2022).

Tested on: MC-38-hPD-L1 tumor cells
Test: Anti-tumor efficacy in MC-38-hPD-L1 models
Type: in vivo
Conditions: MC-38-hPD-L1, C57BL/6-hPD-1 mice; 20 mg/kg, IP, BIW; 19 days
Experimental: Materials required for the experiment: Antibody: PD-L1 antibody Durvalumab, Product specifications: 120 mg/2.4 mL(50 mg/mL), Lot No.: 041E17C, Manufacture: AstraZeneca, purchased from Hongkong Mingchuang Medical Limited, storage at 2-8° C. Experimental animal: 120 C57BL/6-hPD-1 mice, female, 6˜8 weeks old, 18˜21 g, purchased from Jiangsu Gem Pharmatech Co. Ltd. Formulation material: castor oil (Cremophor RH40), CAS No.: 61788-85-0, Lot No.: 29761847G0, purchased from Shanghai Xietai Chemical Co. Ltd.; β-cyclodextrin (SBE-β-CD), CAS No.: 128446-35-5, Lot No.: R1804474, purchased from Shanghai Shaoyuan Chemical Co. Ltd.; DMEM culture medium, CAS No.: 11995-065, Lot No.: 2025378, purchased from Gibco Co. Ltd.; PBS, Art. No.: SH30256.01, Lot No.: AB10141338, purchased from HyClone Co. Ltd.; Fetal bovine serum: CAS No.: 10099-141, Lot No.: 1966174C, purchased from Gibco Co. Ltd.; hygromycinB: CAS No.: 10687010, Lot No.: HY069-L12 purchased from Invitrogen.
Cell culture: The MC-38 tumor cells (NCI) were maintained in vitro as a monolayer culture in DMEM medium supplemented with 10% heat inactivated fetal bovine serum, 100 μg/mL hygromycinB at 37° C. in an atmosphere of 5% CO2 in air. The tumor cells were routinely subcultured three times weekly by trypsin-EDTA treatment. The cells growing to a confluency around 70%-80% were harvested and counted for tumor inoculation.
Tumor cell inoculation and group administration: The 100 uL cell suspension containing 1×10^6 MC-38-hPD-L1 tumor cells (cells suspended in base DMEM medium) was inoculated into right dorsal subcutaneous area in mice. 6 days after inoculation, 60 tumor-bearing mice with transplanted tumors ranging from 31.49 mm^3 to 110.26 mm^3 were selected, stratified randomization was used to group and start the administration on the day of grouping.
Preparation of test substances: Preparation of formulation: 800 mL of sterile water was added into the volumetric flask with magnetic stirring to have a vortex. 100 g of castor oil (Cremophor RH40) was added with a spoon slowly into the vortex and the solution was kept stirring. 200 g of β-cyclodextrin (SBE-β-CD) was added while the solution was kept stirring until the solution was clear, and the total volume was set to 1000 mL, which contained 10% (w/v) Cremophor RH40+20% (w/v) an aqueous solution of SBE-β-CD.
Preparation of Compound Suspension: 150.92 mg compound was weighed and 12.5 mL 10% (w/v) Cremophor RH40+20% (w/v) SBE-β-CD aqueous solution were added. The suspension solution with a concentration of 12.0 mg/mL was obtained by vortex for 2 minutes and ultrasound for 30 minutes. 5.0 mL of the compound suspension solution with concentration of 12.0 mg/mL was pipetted and 5.0 mL aqueous formulation solution was added. The suspension solution with a concentration of 6.0 mg/mL was obtained by vortex for 1 minute and sonicated by ultrasound for 5 minutes. 2.0 mL of the compound suspension solution with concentration of 6.0 mg/mL was pipetted and […] was added. The suspension solution with a concentration of 3.0 mg/mL was obtained by vortex for 1 minute and sonicated by ultrasound for 5 minutes. Compound suspension solution was prepared once a day.
Preparation of hPD-L1 antibody: 0.12 mL PD-L1 antibody Durvalumab (50 mg/mL) original solution was pipetted and divided into […] in 5 mL sterile centrifugal tube, which were packed with each containing 6.0 mg. They were stored in refrigerator at 4° C. Before administration, a raw solution containing 0.12 mL and 50 mg/mL was taken, and 2.88 mL 0.9% sodium chloride solution was added to make the solution thoroughly mixed. 3 mL Duvalumab solution with the concentration 2 mg/mL was obtained.
Procedure: The mice in the vehicle group were weighed and recorded in the electronic balance according to their numbers. […]

Durvalumab [reference compound]
TGI: 48.17%
Tumor Volume: 341.19 ± 56.59 mm^3
